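Test compounds were applied to cells in 96-well plates for 48 hours at 5 doses. The concentration for 50% growth inhibition is given as GI50.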 Active and inactive are the calls of the source. Rule as the data show it: active = GI50 up to about 1.1 µM and inactive = higher.
What was measured:
Test in all cases: NCI anticancer screen, dose series, 48 h
UO-31 = tested on: UO-31
SNB-75 = tested on: SNB-75
SN12C = tested on: SN12C
IGROV-1 = tested on: IGROV-1
M14 = tested on: M14
UACC-62 = tested on: UACC-62
HL-60 = tested on: HL-60
ACHN = tested on: ACHN
SK-MEL-28 = tested on: SK-MEL-28
OVCAR-3 = tested on: OVCAR-3
A549 = tested on: A549
SF-295 = tested on: SF-295
K562 = tested on: K562
SF-539 = tested on: SF-539
RXF 393 = tested on: RXF 393
NCI-H522 = tested on: NCI-H522
A498 = tested on: A498
HOP-92 = tested on: HOP-92

O=S(=O)(/C=C/C(=C/c1ccccc1)S(=O)(=O)c1ccccc1)c1ccccc1
GI50 (UO-31): 1.82 µM (inactive) | GI50 (SNB-75): 1.87 µM (inactive) | GI50 (SN12C): 1.7 µM (inactive) | GI50 (IGROV-1): 4.06 µM (inactive) | GI50 (M14): 1.28 µM (inactive) | GI50 (UACC-62): 2.16 µM (inactive) | GI50 (HL-60): 0.543 µM (active) | GI50 (ACHN): 1.76 µM (inactive) | GI50 (SK-MEL-28): 1.49 µM (inactive) | GI50 (OVCAR-3): 1.73 µM (inactive) | GI50 (A549): 2.13 µM (inactive) | GI50 (SF-295): 1.66 µM (inactive) | GI50 (K562): 1 µM (active) | GI50 (SF-539): 1.77 µM (inactive) | GI50 (RXF 393): 1.73 µM (inactive) | GI50 (NCI-H522): 1.45 µM (inactive)

Cc1cc(NS(=O)(=O)c2ccc(Nc3c4ccccc4nc4c(C(=O)Nc5ccc(S(N)(=O)=O)cc5)cccc34)cc2)no1
GI50 (UO-31): 80.9 µM (inactive) | GI50 (A498): > 100 µM (inactive) | GI50 (SNB-75): 72.8 µM (inactive) | GI50 (SN12C): 36.2 µM (inactive) | GI50 (IGROV-1): 70.1 µM (inactive) | GI50 (M14): > 100 µM (inactive) | GI50 (UACC-62): 24.8 µM (inactive) | GI50 (HOP-92): 33 µM (inactive) | GI50 (ACHN): > 100 µM (inactive) | GI50 (SK-MEL-28): 28.9 µM (inactive) | GI50 (OVCAR-3): 16 µM (inactive) | GI50 (A549): > 100 µM (inactive) | GI50 (SF-295): > 100 µM (inactive) | GI50 (K562): 44.3 µM (inactive) | GI50 (SF-539): 21.3 µM (inactive) | GI50 (RXF 393): 90.6 µM (inactive) | GI50 (NCI-H522): 24.2 µM (inactive)

Cc1cccc(C(C)(C)C)c1NC(=O)C(=O)Cc1nc2ccccc2s1
GI50 (UO-31): > 100 µM (inactive) | GI50 (A498): > 100 µM (inactive) | GI50 (SNB-75): > 100 µM (inactive) | GI50 (SN12C): > 100 µM (inactive) | GI50 (IGROV-1): > 100 µM (inactive) | GI50 (M14): > 100 µM (inactive) | GI50 (UACC-62): > 100 µM (inactive) | GI50 (HOP-92): > 100 µM (inactive) | GI50 (HL-60): > 100 µM (inactive) | GI50 (ACHN): > 100 µM (inactive) | GI50 (SK-MEL-28): > 100 µM (inactive) | GI50 (OVCAR-3): > 100 µM (inactive) | GI50 (A549): > 100 µM (inactive) | GI50 (SF-295): > 100 µM (inactive) | GI50 (K562): > 100 µM (inactive) | GI50 (SF-539): > 100 µM (inactive) | GI50 (NCI-H522): > 100 µM (inactive)

CC(/C=C1\CCC(CN(C)C)C1=O)c1cccc(Br)c1 (stereo not given)
GI50 (UO-31): 19.1 µM (inactive) | GI50 (A498): 26.5 µM (inactive) | GI50 (SN12C): 22 µM (inactive) | GI50 (IGROV-1): 13.8 µM (inactive) | GI50 (M14): 14.9 µM (inactive) | GI50 (UACC-62): 17.3 µM (inactive) | GI50 (HOP-92): 18.2 µM (inactive) | GI50 (HL-60): 3.06 µM (inactive) | GI50 (ACHN): 13.4 µM (inactive) | GI50 (SK-MEL-28): 17 µM (inactive) | GI50 (OVCAR-3): 17 µM (inactive) | GI50 (A549): 31.3 µM (inactive) | GI50 (SF-295): 22.2 µM (inactive) | GI50 (K562): 2.77 µM (inactive) | GI50 (SF-539): 18 µM (inactive) | GI50 (RXF 393): 13.3 µM (inactive) | GI50 (NCI-H522): 8.05 µM (inactive)

Cc1cc(NS(=O)(=O)c2ccc(NC(=O)c3cccc4c(N)c5ccccc5nc34)cc2)no1
GI50 (UO-31): 33.3 µM (inactive) | GI50 (A498): 19.4 µM (inactive) | GI50 (SNB-75): 68.7 µM (inactive) | GI50 (SN12C): 19.2 µM (inactive) | GI50 (IGROV-1): 27.5 µM (inactive) | GI50 (M14): 27.5 µM (inactive) | GI50 (UACC-62): 28 µM (inactive) | GI50 (ACHN): 20 µM (inactive) | GI50 (SK-MEL-28): 22.1 µM (inactive) | GI50 (OVCAR-3): 21.7 µM (inactive) | GI50 (A549): > 100 µM (inactive) | GI50 (SF-295): 23.6 µM (inactive) | GI50 (K562): 31.2 µM (inactive) | GI50 (SF-539): 21.1 µM (inactive) | GI50 (RXF 393): 16.3 µM (inactive) | GI50 (NCI-H522): 17 µM (inactive)

CC1OC(n2cc(Cl)c(=O)[nH]c2=O)C=C(OC(=O)c2ccccc2)C1=O (stereo not given)
GI50 (UO-31): > 100 µM (inactive) | GI50 (SNB-75): > 100 µM (inactive) | GI50 (SN12C): > 100 µM (inactive) | GI50 (IGROV-1): > 100 µM (inactive) | GI50 (M14): > 100 µM (inactive) | GI50 (UACC-62): > 100 µM (inactive) | GI50 (HOP-92): > 100 µM (inactive) | GI50 (HL-60): > 100 µM (inactive) | GI50 (ACHN): > 100 µM (inactive) | GI50 (SK-MEL-28): > 100 µM (inactive) | GI50 (OVCAR-3): > 100 µM (inactive) | GI50 (A549): > 100 µM (inactive) | GI50 (SF-295): > 100 µM (inactive) | GI50 (K562): > 100 µM (inactive) | GI50 (SF-539): > 100 µM (inactive) | GI50 (RXF 393): > 100 µM (inactive)

Sc1nnc(/C=C/c2ccc(Cl)c(Cl)c2)[nH]1
GI50 (UO-31): 71.3 µM (inactive) | GI50 (A498): 53.8 µM (inactive) | GI50 (SN12C): > 100 µM (inactive) | GI50 (IGROV-1): > 100 µM (inactive) | GI50 (UACC-62): > 100 µM (inactive) | GI50 (HL-60): > 100 µM (inactive) | GI50 (ACHN): > 100 µM (inactive) | GI50 (SK-MEL-28): > 100 µM (inactive) | GI50 (OVCAR-3): 77.1 µM (inactive) | GI50 (A549): > 100 µM (inactive) | GI50 (SF-295): > 100 µM (inactive) | GI50 (K562): > 100 µM (inactive) | GI50 (SF-539): > 100 µM (inactive) | GI50 (RXF 393): > 100 µM (inactive) | GI50 (NCI-H522): 94 µM (inactive)

C[N+](C)(C)CC1CCCC/C1=N\OC(=O)c1ccccc1 (stereo not given)
GI50 (UO-31): > 100 µM (inactive) | GI50 (SNB-75): > 100 µM (inactive) | GI50 (SN12C): > 100 µM (inactive) | GI50 (IGROV-1): > 100 µM (inactive) | GI50 (M14): > 100 µM (inactive) | GI50 (UACC-62): > 100 µM (inactive) | GI50 (HOP-92): > 100 µM (inactive) | GI50 (ACHN): > 100 µM (inactive) | GI50 (SK-MEL-28): > 100 µM (inactive) | GI50 (OVCAR-3): > 100 µM (inactive) | GI50 (A549): > 100 µM (inactive) | GI50 (SF-295): > 100 µM (inactive) | GI50 (K562): > 100 µM (inactive) | GI50 (SF-539): > 100 µM (inactive) | GI50 (RXF 393): > 100 µM (inactive) | GI50 (NCI-H522): > 100 µM (inactive)
